Test results as given in patent US20250281479A1, “TREATMENT OF CAVERNOUS ANGIOMAS WITH A 4-SUBSTITUTED PIPERIDINE DERIVATIVE” (Neurelis, Inc., priority 2024, published 2025).
Like-named read-outs stand apart in the source and are kept apart here.

Legend:
[1] = first-in-human single ascending dose and food-effect study, plasma pharmacokinetics; format: in vivo; settings: for Vd/F: read-out: Vz/F
Text: This was a first-in-human, single center, randomized, double-blind, placebo-controlled, single ascending dose (SAD) study, including a food-effect assessment, in healthy male and female subjects. Up to 44 subjects were included in the study.
The study consisted of 4 sequential cohorts of 8 subjects each (6 active and 2 placebo), randomly assigned to receive a single oral dose of NRL-1049 or matching-placebo under fasting state on Day 1 (See Table 2). In each cohort, a sentinel group of 2 subjects (1 active and 1 placebo) were dosed at least 24 hours prior to enrolling the remaining subjects of the cohort, contingent on the safety profile observed during sentinel dosing, as defined by medical judgment.
Subjects were admitted to the clinical research unit (CRU) on Day −1. On Day 1, following an overnight fast, subjects received a single oral dose of their assigned study treatment. Safety, PK, and exploratory biomarker assessments were performed prior to dosing and at assigned time points during study confinement. Subjects were permitted to leave the CRU following the completion of the 48-hour PK postdose sampling and safety assessments. A safety follow-up phone call was performed on Day 8 (±1 day).
Furthermore, a food-effect assessment was integrated into Cohort 3, in which a single oral 150 mg dose of NRL-1049 or placebo was administered to 12 subjects (10 active and 2 placebo) under fed state in Period 2 (refer to schedule of food-effect Cohort 3 in Table 3). After completion of Period 1 and a washout period of at least 14 days, Cohort 3 subjects repeated the screening procedures to ensure they still met the inclusion and exclusion criteria prior to readmission to the CRU for Period 2. Subjects dosed in Period 1 and who returned for Period 2 (a maximum of 6 active and 2 placebo) were administered the same single oral dose in Period 2 under fed state. In addition, at least 4 new subjects were enrolled in Period 2 only, in order to dose a total of 12 subjects (10 active and 2 placebo), in a 1:1 ratio of male to female. If a subject dosed in Period 1 was unable to return for Period 2, a new subject was enrolled to ensure dosing a total of 12 subjects in Period 2. Newly enrolled subjects only received the study drug in the fed state, and as such were not required to undergo Period 1 activities. There was no sentinel approach in Period 2.
Study drugs (NRL-1049 or placebo) were administered in the morning. The date and time of each dose was recorded. For each subject, all scheduled postdose activities and assessments were performed relative to the time of study drug administration. An oral dose of the assigned formulation was administered to subjects with approximately 240 mL of water at ambient temperature. The capsule(s) were swallowed whole and not chewed or broken. Food and fluid intake other than water were controlled for each confinement period and all subjects. In Cohorts 1, 2, 3 (Period 1), and 4, water was permitted as needed except from 1 hour predose until 1 hour after dosing. In Period 2 of Cohort 3, water was permitted as needed throughout the confinement period. For cohorts under fasting state, subjects were required to fast (abstain from food) for at least 10 hours prior to dosing and for at least 4 hours following dosing. In Period 2 of the food-effect cohort only, following an overnight fast of at least 10 hours, subjects received a standardized high-fat, high-calorie meal 30 minutes prior to study drug administration. An example meal would consist of 2 eggs fried in butter, 2 strips of bacon, 2 slices of toast with butter, 4 ounces of hash brown potatoes, and 8 ounces of whole milk. […] Subjects had to eat the total content of this meal in 30 minutes or less. For all cohorts, a standardized lunch was served at least 4 hours after dosing. A supper, light snack, and other meals were served at appropriate times thereafter, but not until after 9 hours postdose. […]

dog hepatocytes = assay: incubation with dog hepatocytes; format: in vitro ADME
Method: (§1) Exposure to NRL-2017 was similar or greater (up to 5-fold) than that to NRL-1049 in rats when dosed once a day (QD). In monkeys, exposure to NRL-2017 was also greater (up to 33-fold) than that to NRL-1049. When rats were dosed twice a day (BID) for 14 days, there was a decrease in formation of NRL-2017 with exposure to NRL-2017 lower than that of NRL-1049 (ratio as low as 0.06). […] NRL-1049 bound to human serum albumin and human alpha1-acid glycoprotein. […] There was also inhibition of P-glycoprotein (P-gp) (only CACO-2 cells), organic anion transporting polypeptides (OATP) OATP1B1, OATP1B3 and OAT3 (IC50, >100 μM), but no effect on P-gp (MDCK2 cells), breast cancer resistance protein (BCRP), bile salt export pump (BSEP), or MATE2-K. NRL-1049 is a substrate for P-gp, not BCRP. […] This conclusion will be revisited when human pharmacokinetic (PK) data becomes available.

[2] = nonclinical pharmacokinetics after a single oral dose; format: in vivo, mice, rats, and monkeys
Method: as §1

[3] = 150 mg NRL-1049, fed compared to fasting state
[4] = 25 to 250 mg NRL-1049, fasting conditions
[5] = plasma NRL-1049, mean, 25 mg NRL-1049 single oral, fasting, Cohort 1, N = 6
[6] = plasma NRL-1049, mean, 75 mg NRL-1049 single oral, fasting, Cohort 2, N = 6
[7] = plasma NRL-1049, mean, 150 mg NRL-1049 single oral, Fed, Cohort 3, N = 10
[8] = plasma NRL-1049, mean, 250 mg NRL-1049 single oral, fasting, Cohort 4, N = 6

C[C@@H](N)C1CCN(S(=O)(=O)c2cccc3cnccc23)CC1 [NRL-1049]
food effect on mean AUC0-T and AUCinf [1, 3]: greater in the fed state
food effect on mean Cmax [1, 3]: decreased
food effect on mean apparent clearance [1, 3]: greater in the fasting state
food effect on mean apparent volume of distribution [1, 3]: greater in the fed state
food effect on mean elimination half-life [1, 3]: slightly increased
time up to which mean concentrations were quantifiable ([1]; 25-mg dose, fasting state): up to 2 hours
manner of increase of AUC0-T with dose [1, 4]: greater than dose proportional
manner of increase of AUC0-Tmax with dose [1, 4]: dose proportional
manner of increase of AUCinf with dose [1, 4]: greater than dose proportional
manner of increase of Cmax with dose [1, 4]: dose proportional
time up to which mean concentrations were quantifiable ([1]; 75-mg dose, fasting state): ≤ 4 h
time up to which mean concentrations were quantifiable ([1]; 150- and 250-mg doses, fasting state): ≤ 8 h
time up to which mean concentrations were quantifiable ([1]; 150-mg dose, fed state): up to 12 hours
AUC(0-t) ([1]; both sexes, human, plasma, oral, range over dose range 25 to 250 mg NRL-1049, fasting state, read-out: mean AUC0-T): 3.03 to 76.5 ng·h/mL
AUC ([1]; both sexes, human, plasma, oral, range over dose range 25 to 250 mg NRL-1049, fasting state, read-out: mean AUC0-Tmax): 1.26 to 8.73 ng·h/mL
AUC(0-inf) ([1]; both sexes, human, plasma, oral, range over dose range 25 to 250 mg NRL-1049, fasting state, read-out: mean AUCinf): 3.81 to 78.2 ng·h/mL
Cmax ([1]; both sexes, human, plasma, oral, range over dose range 25 to 250 mg NRL-1049, fasting state, read-out: mean Cmax): 3.66 to 58 ng/mL
half-life ([1]; both sexes, human, plasma, oral, range over the dose groups 25 to 250 mg NRL-1049, fasting state, read-out: mean elimination half-life): 31.2 to 75.6 min
AUC(0-t) ([1]; both sexes, human, plasma, po, 25 mg, plasma NRL-1049, mean, 25 mg NRL-1049 single oral, fasting, Cohort 1, N = 6, read-out: AUC0-T): 3.03 ng·h/mL
AUC ([1]; both sexes, human, plasma, po, 25 mg, plasma NRL-1049, mean, 25 mg NRL-1049 single oral, fasting, Cohort 1, N = 6, read-out: AUC0-Tmax): 1.26 ng·h/mL
AUC(0-inf) ([1]; both sexes, human, plasma, po, 25 mg, plasma NRL-1049, mean, 25 mg NRL-1049 single oral, fasting, Cohort 1, N = 6, read-out: AUCinf): 3.81 ng·h/mL
Cmax ([1]; both sexes, human, plasma, po, 25 mg, plasma NRL-1049, mean, 25 mg NRL-1049 single oral, fasting, Cohort 1, N = 6, read-out: Cmax): 3.66 ng/mL
Vd/F ([1]; both sexes, human, plasma, po, 25 mg, plasma NRL-1049, mean, 25 mg NRL-1049 single oral, fasting, Cohort 1, N = 6): 5500 L
Tmax ([1]; both sexes, human, plasma, po, 25 mg, plasma NRL-1049, median, 25 mg NRL-1049 single oral, fasting, Cohort 1, N = 6, read-out: Tmax): 45 min
AUC(0-t) ([1]; both sexes, human, plasma, po, 75 mg, plasma NRL-1049, mean, 75 mg NRL-1049 single oral, fasting, Cohort 2, N = 6, read-out: AUC0-T): 13.8 ng·h/mL
AUC ([1]; both sexes, human, plasma, po, 75 mg, plasma NRL-1049, mean, 75 mg NRL-1049 single oral, fasting, Cohort 2, N = 6, read-out: AUC0-Tmax): 2.88 ng·h/mL
AUC(0-inf) ([1]; both sexes, human, plasma, po, 75 mg, plasma NRL-1049, mean, 75 mg NRL-1049 single oral, fasting, Cohort 2, N = 6, read-out: AUCinf): 15.2 ng·h/mL
Cmax ([1]; both sexes, human, plasma, po, 75 mg, plasma NRL-1049, mean, 75 mg NRL-1049 single oral, fasting, Cohort 2, N = 6, read-out: Cmax): 16.9 ng/mL
Vd/F ([1]; both sexes, human, plasma, po, 75 mg, plasma NRL-1049, mean, 75 mg NRL-1049 single oral, fasting, Cohort 2, N = 6): 6020 L
Tmax ([1]; both sexes, human, plasma, po, 75 mg, plasma NRL-1049, median, 75 mg NRL-1049 single oral, fasting, Cohort 2, N = 6, read-out: Tmax): 30 min
AUC(0-t) ([1]; both sexes, human, plasma, po, 150 mg, plasma NRL-1049, mean, 150 mg NRL-1049 single oral, Fasted, Cohort 3, N = 6, read-out: AUC0-T): 34.8 ng·h/mL
AUC ([1]; both sexes, human, plasma, po, 150 mg, plasma NRL-1049, mean, 150 mg NRL-1049 single oral, Fasted, Cohort 3, N = 6, read-out: AUC0-Tmax): 6.16 ng·h/mL
AUC(0-inf) ([1]; both sexes, human, plasma, po, 150 mg, plasma NRL-1049, mean, 150 mg NRL-1049 single oral, Fasted, Cohort 3, N = 6, read-out: AUCinf): 36.2 ng·h/mL
Cmax ([1]; both sexes, human, plasma, po, 150 mg, plasma NRL-1049, mean, 150 mg NRL-1049 single oral, Fasted, Cohort 3, N = 6, read-out: Cmax): 34.9 ng/mL
Vd/F ([1]; both sexes, human, plasma, po, 150 mg, plasma NRL-1049, mean, 150 mg NRL-1049 single oral, Fasted, Cohort 3, N = 6): 10800 L
AUC(0-t) ([1]; both sexes, human, plasma, po, 150 mg, plasma NRL-1049, mean, 150 mg NRL-1049 single oral, Fed, Cohort 3, N = 10, read-out: AUC0-T): 42 ng·h/mL
AUC ([1]; both sexes, human, plasma, po, 150 mg, plasma NRL-1049, mean, 150 mg NRL-1049 single oral, Fed, Cohort 3, N = 10, read-out: AUC0-Tmax): 6.14 ng·h/mL
AUC(0-inf) ([1]; both sexes, human, plasma, po, 150 mg, plasma NRL-1049, mean, 150 mg NRL-1049 single oral, Fed, Cohort 3, N = 10, read-out: AUCinf): 44.7 ng·h/mL
Cmax ([1]; both sexes, human, plasma, po, 150 mg, plasma NRL-1049, mean, 150 mg NRL-1049 single oral, Fed, Cohort 3, N = 10, read-out: Cmax): 18.5 ng/mL
Vd/F ([1]; both sexes, human, plasma, po, 150 mg, plasma NRL-1049, mean, 150 mg NRL-1049 single oral, Fed, Cohort 3, N = 10): 10800 L
Tmax ([1]; both sexes, human, plasma, po, 150 mg, plasma NRL-1049, median, 150 mg NRL-1049 single oral, Fasted, Cohort 3, N = 6, read-out: Tmax): 30 min
Tmax ([1]; both sexes, human, plasma, po, 150 mg, plasma NRL-1049, median, 150 mg NRL-1049 single oral, Fed, Cohort 3, N = 10, read-out: Tmax): 52.8 min
AUC(0-t) ([1]; both sexes, human, plasma, po, 250 mg, plasma NRL-1049, mean, 250 mg NRL-1049 single oral, fasting, Cohort 4, N = 6, read-out: AUC0-T): 76.5 ng·h/mL
AUC ([1]; both sexes, human, plasma, po, 250 mg, plasma NRL-1049, mean, 250 mg NRL-1049 single oral, fasting, Cohort 4, N = 6, read-out: AUC0-Tmax): 8.73 ng·h/mL
AUC(0-inf) ([1]; both sexes, human, plasma, po, 250 mg, plasma NRL-1049, mean, 250 mg NRL-1049 single oral, fasting, Cohort 4, N = 6, read-out: AUCinf): 78.2 ng·h/mL
Cmax ([1]; both sexes, human, plasma, po, 250 mg, plasma NRL-1049, mean, 250 mg NRL-1049 single oral, fasting, Cohort 4, N = 6, read-out: Cmax): 58 ng/mL
Vd/F ([1]; both sexes, human, plasma, po, 250 mg, plasma NRL-1049, mean, 250 mg NRL-1049 single oral, fasting, Cohort 4, N = 6): 4940 L
Tmax ([1]; both sexes, human, plasma, po, 250 mg, plasma NRL-1049, median, 250 mg NRL-1049 single oral, fasting, Cohort 4, N = 6, read-out: Tmax): 30 min
Tmax ([1]; both sexes, human, plasma, po, range over single oral doses of 25 to 250 mg NRL-1049, fasting state, read-out: median time to maximum observed plasma concentration (Tmax)): 30 to 45 min
CL/F [1, 5]: 7420 L/h
Thalf [1, 5]: 0.52 h
CL/F [1, 6]: 5350 L/h
Thalf [1, 6]: 0.81 h
CL/F ([1]; plasma NRL-1049, mean, 150 mg NRL-1049 single oral, Fasted, Cohort 3, N = 6): 4820 L/h
CL/F [1, 7]: 3700 L/h
Thalf [1, 7]: 2.05 h
CL/F [1, 8]: 3370 L/h
Thalf [1, 8]: 1.03 h
metabolism by hepatocytes (dog hepatocytes): not metabolized
exposure versus dose ([2]; in vivo): greater than dose-proportional
half-life ([2]; mouse, rat, monkey, plasma, single oral dose of NRL-1049, range over mice, rats, and monkeys, read-out: elimination phase half-life (t½)): 34.2 to 408 min
Tmax ([2]; mouse, rat, monkey, plasma, single oral dose of NRL-1049, range over mice, rats, and monkeys, read-out: time to maximum plasma concentration (Tmax)): 15 to 120 min
